Assay results as given in US20220324815A1, “2-PHENOXY-PYRIMIDINE DERIVATIVES AS HERBICIDAL COMPOUNDS” (SYNGENTA CROP PROTECTION AG, priority 2019, published 2022).

How the values were obtained:
Type in all cases: in vivo
Settings in all cases: 250 g/ha unless otherwise stated, evaluated after 13 days, five-point scale
[1] = test system: Amaranthus retoflexus (AMARE); test: Test 1 glasshouse herbicide test, post-emergence application (Table B1)
How it was run: (§1)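 Pots sown in standard soil; sprayed 1 day (pre-emergence) or 8 days (post-emergence) after sowing at 250 g/ha unless stated, in acetone/water (50:50) with 0.5% Tween 20. Glasshouse 24/16 °C, 14 h light, 65% humidity; damage scored at 13 days on a 1–5 scale (5=81–100%, 1=0–20%).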

[2] = test system: Echinochloa crus-galli (ECHCG); test: as above
How it was run: as §1

[3] = test system: Ipomoea hederacea (IPOHE); test: as above
How it was run: as §1

Lolium perenne (LOLPE) [4] = test: as above
How it was run: as §1

Setaria faberi (SETFA) [5] = test: as above
How it was run: as §1

Solanum nigrum (SOLNI) [6] = test: as above
How it was run: as §1

[7] = test system: Amaranthus retoflexus (AMARE); test: Test 1 glasshouse herbicide test, pre-emergence application (Table B2)
How it was run: as §1

[8] = test system: Echinochloa crus-galli (ECHCG); test: as above
How it was run: as §1

[9] = test system: Ipomoea hederacea (IPOHE); test: as above
How it was run: as §1

Lolium perenne (LOLPE) [10] = test: as above
How it was run: as §1

Setaria faberi (SETFA) [11] = test: as above
How it was run: as §1

Solanum nigrum (SOLNI) [12] = test: as above
How it was run: as §1

Row | SMILES | % phytotoxicity AMARE, post-emergence application [1] | % phytotoxicity ECHCG, post-emergence application [2] | % phytotoxicity IPOHE, post-emergence application [3] | % phytotoxicity LOLPE, post-emergence application (Lolium perenne (LOLPE) [4]) | % phytotoxicity SETFA, post-emergence application (Setaria faberi (SETFA) [5]) | % phytotoxicity SOLNI, post-emergence application (Solanum nigrum (SOLNI) [6]) | % phytotoxicity AMARE, pre-emergence application [7] | % phytotoxicity ECHCG, pre-emergence application [8] | % phytotoxicity IPOHE, pre-emergence application [9] | % phytotoxicity LOLPE, pre-emergence application (Lolium perenne (LOLPE) [10]) | % phytotoxicity SETFA, pre-emergence application (Setaria faberi (SETFA) [11]) | % phytotoxicity SOLNI, pre-emergence application (Solanum nigrum (SOLNI) [12])
1 | FC(F)(F)CCSc1ccccc1Oc1ncc(Cl)cn1 [Al] | 5 (5=81 to 100%) | 4 (4=61 to 80%) | 4 (4=61 to 80%) | 4 (4=61 to 80%) | 4 (4=61 to 80%) | 4 (4=61 to 80%) |  |  |  |  |  | 
2 | FC(F)(F)CCSc1ccccc1Oc1ncc(Cl)cn1 [Compound A1] |  |  |  |  |  |  | 5 (5=81 to 100%) | 4 (4=61 to 80%) | 3 (3=41 to 60%) | 3 (3=41 to 60%) | 5 (5=81 to 100%) | 4 (4=61 to 80%)
3 | [O-][S+](CCC(F)(F)F)c1ccccc1Oc1ncc(Cl)cn1 (stereo not shown) [Compound A2] | 5 (5=81 to 100%) | 4 (4=61 to 80%) | 4 (4=61 to 80%) | 4 (4=61 to 80%) | 4 (4=61 to 80%) | 5 (5=81 to 100%) | 5 (5=81 to 100%) | 5 (5=81 to 100%) | 2 (2=21 to 40%) | 3 (3=41 to 60%) | 5 (5=81 to 100%) | 5 (5=81 to 100%)
4 | O=S(=O)(CCC(F)(F)F)c1ccccc1Oc1ncc(Cl)cn1 [Compound A3] | 5 (5=81 to 100%) | 4 (4=61 to 80%) | 3 (3=41 to 60%) | 4 (4=61 to 80%) | 4 (4=61 to 80%) | 5 (5=81 to 100%) | 5 (5=81 to 100%) | 5 (5=81 to 100%) | 3 (3=41 to 60%) | 4 (4=61 to 80%) | 5 (5=81 to 100%) | 4 (4=61 to 80%)
5 | FC(F)(F)CCCSc1ccccc1Oc1ncc(Cl)cn1 [Compound A4, 5-chloro-2-[2-(4,4,4-trifluorobutylsulfanyl)phenoxy] pyrimidine] | 5 (5=81 to 100%) | 4 (4=61 to 80%) | 4 (4=61 to 80%) | 4 (4=61 to 80%) | 5 (5=81 to 100%) | 5 (5=81 to 100%) | 5 (5=81 to 100%) | 5 (5=81 to 100%) | 3 (3=41 to 60%) | 4 (4=61 to 80%) | 5 (5=81 to 100%) | 4 (4=61 to 80%)
6 | [O-][S+](CCCC(F)(F)F)c1ccccc1Oc1ncc(Cl)cn1 (stereo not shown) [Compound A5] | 5 (5=81 to 100%) | 5 (5=81 to 100%) | 4 (4=61 to 80%) | 5 (5=81 to 100%) | 5 (5=81 to 100%) | 5 (5=81 to 100%) | 5 (5=81 to 100%) | 5 (5=81 to 100%) | 5 (5=81 to 100%) | 5 (5=81 to 100%) | 5 (5=81 to 100%) | 5 (5=81 to 100%)
7 | O=S(=O)(CCCC(F)(F)F)c1ccccc1Oc1ncc(Cl)cn1 [Compound A6] | 5 (5=81 to 100%) | 3 (3=41 to 60%) | 3 (3=41 to 60%) | 2 (2=21 to 40%) | 4 (4=61 to 80%) | 5 (5=81 to 100%) | 5 (5=81 to 100%) | 4 (4=61 to 80%) | 2 (2=21 to 40%) | 2 (2=21 to 40%) | 5 (5=81 to 100%) | 3 (3=41 to 60%)
8 | Fc1cccc(Oc2ncc(Cl)cn2)c1SCCC(F)(F)F [Compound A7] | 5 (5=81 to 100%) | 4 (4=61 to 80%) | 2 (2=21 to 40%) | 2 (2=21 to 40%) | 5 (5=81 to 100%) | 5 (5=81 to 100%) | 5 (5=81 to 100%) | 5 (5=81 to 100%) | 2 (2=21 to 40%) | 4 (4=61 to 80%) | 5 (5=81 to 100%) | 4 (4=61 to 80%)
9 | [O-][S+](CCC(F)(F)F)c1c(F)cccc1Oc1ncc(Cl)cn1 (stereo not shown) [Compound A8] | 5 (5=81 to 100%) | 1 (1=0 to 20%) | 2 (2=21 to 40%) | 1 (1=0 to 20%) | 3 (3=41 to 60%) | 4 (4=61 to 80%) | 5 (5=81 to 100%) | 2 (2=21 to 40%) | 2 (2=21 to 40%) | 2 (2=21 to 40%) | 4 (4=61 to 80%) | 4 (4=61 to 80%)
10 | N#Cc1cccc(Oc2ncc(Cl)cn2)c1S(=O)(=O)CCCOC(F)(F)F [Compound A117] | 5 (5=81 to 100%) | 4 (4=61 to 80%) | 3 (3=41 to 60%) |  | 4 (4=61 to 80%) |  | 5 (5=81 to 100%) | 4 (4=61 to 80%) | 5 (5=81 to 100%) |  | 5 (5=81 to 100%) | 
11 | N#Cc1cccc(Oc2ncc(Br)cn2)c1S(=O)(=O)CCCC(F)(F)F [Compound A118] | 5 (5=81 to 100%) | 4 (4=61 to 80%) | 4 (4=61 to 80%) |  | 4 (4=61 to 80%) |  | 5 (5=81 to 100%) | 5 (5=81 to 100%) | 5 (5=81 to 100%) |  | 5 (5=81 to 100%) | 
12 | N#Cc1cccc(Oc2ncc(Br)cn2)c1SCCCC(F)(F)F [Compound A119] | 5 (5=81 to 100%) | 4 (4=61 to 80%) | 4 (4=61 to 80%) |  | 4 (4=61 to 80%) |  | 5 (5=81 to 100%) | 5 (5=81 to 100%) | 5 (5=81 to 100%) |  | 5 (5=81 to 100%) | 
13 | N#Cc1cccc(Oc2ncc(Br)cn2)c1S(=O)(=O)CCCCC(F)(F)F [Compound A120] | 4 (4=61 to 80%) | 3 (3=41 to 60%) | 4 (4=61 to 80%) |  | 3 (3=41 to 60%) |  | 4 (4=61 to 80%) | 3 (3=41 to 60%) | 5 (5=81 to 100%) |  | 4 (4=61 to 80%) | 
14 | N#Cc1cccc(Oc2ncc(Br)cn2)c1SCCCCC(F)(F)F [Compound A121] | 5 (5=81 to 100%) | 3 (3=41 to 60%) | 3 (3=41 to 60%) |  | 4 (4=61 to 80%) |  | 5 (5=81 to 100%) | 3 (3=41 to 60%) | 2 (2=21 to 40%) |  | 5 (5=81 to 100%) | 
